Target: σ1-receptor (Cavia porcellus (Guinea pig), UniProt Q60492)
Assay: σ1-receptor binding assay, [3H]-(+)-pentazocine displacement in brain membranes
Conditions: radioligand [3H]-(+)-pentazocine 5.0 nM; for % Displacement (10^−6 M): compound at 10^−6 M
Description: Guinea pig brains were homogenized in 10 vols. (w/v) of Tris-HCl 50 mM 0.32 M sucrose, pH 7.4, with a Kinematica Polytron PT 3000 at 15000 r.p.m. for 30 s. The homogenate was centrifuged at 1000 g for 10 min at 4° C. and the supernatants collected and centrifuged again at 48000 g for 15 min at 4° C. The pellet was resuspended in 10 volumes of Tris-HCl buffer (50 mM, pH 7.4), incubated at 37° C. for 30 min, and centrifuged at 48000 g for 20 min at 4° C. Following this, the pellet was resuspended in fresh Tris-HCl buffer (50 mM, pH 7.4) and stored on ice until use.
The radioligand used was [^3H]-(+)-pentazocine at 5.0 nM and the final volume was 200 μl. The incubation was initiated with the addition of 100 μA of membrane at a final tissue concentration of approximately 5 mg tissue net weight/mL and the incubation time was 150 m. at 37° C. After incubation, the membranes were collected onto pretreated glass fiber filterplate (MultiScreen-FC, Millipore), with polyethylenimine 0.1%. The filters were washed two times with 200 μA of washing buffer (50 mM Tris CI, pH=7.4) and then 25 μl of Ecoscint H liquid scintillation cocktail were added. […] Nonspecific binding was determined with 1 μM haloperidol.

Sequence of σ1-receptor (Q60492 whole entry): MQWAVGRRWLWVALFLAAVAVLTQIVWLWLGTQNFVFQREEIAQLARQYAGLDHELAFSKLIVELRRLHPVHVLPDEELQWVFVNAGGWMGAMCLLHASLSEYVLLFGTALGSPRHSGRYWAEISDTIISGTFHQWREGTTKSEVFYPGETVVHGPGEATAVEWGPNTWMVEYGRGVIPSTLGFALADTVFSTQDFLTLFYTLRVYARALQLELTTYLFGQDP

Structure (SMILES)	% Displacement (10^−6 M)	Ki	Ki (maleate)
Cl.O=C(Nc1ncnc2c1cnn2CCN1CCCCC1)C1CCCCC1 [Example 6, N-(1-(2-(Piperidin-1-yl)ethyl)-1H-pyrazolo[3,4-d]pyrimidin-4-yl)cyclohexanecarboxamide hydrochloride]	78.6%	73.1 nM	–
CC(C)(C)c1cc(C(=O)Nc2ncnc3c2cnn3CCN2CCCCC2)cc(C(C)(C)C)c1.Cl [Example 9, 3,5-di-tert-Butyl-N-(1-(2-(piperidin-1-yl)ethyl)-1H-pyrazolo[3,4-d]pyrimidin-4-yl)benzamide hydrochloride]	49.50%	700 nM	–
CC(C)N(CCn1ncc2c(NC(=O)C3CCCCC3)ncnc21)C(C)C.O=C(O)/C=C\C(=O)O [Example 16, N-(1-(2-(Diisopropylamino)ethyl)-1H-pyrazolo[3,4-d]pyrimidin-4-yl)cyclohexanecarboxamide maleate]	68.2%	244 nM	–
CCCNC(=O)Nc1ncnc2c1cnn2CCN1CCCOCC1 [Example 44, 1-(1-(2-(1,4-oxazepan-4-yl)ethyl)-1H-pyrazolo[3,4-d]pyrimidin-4-yl)-3-propylurea]	–	252 nM	–
CC(C)N1CCN(CCn2ncc3c(NC(=O)C4CCCC4)ncnc32)CC1.O=C(O)/C=C\C(=O)O [Example 32, N-(1-(2-(4-isopropylpiperazin-1-yl)ethyl)-1H-pyrazolo[3,4-d]pyrimidin-4-yl)cyclopentanecarboxamide maleate]	63.3%	–	683 nM
CC(C)N(CCn1ncc2c(NC(=O)C34C5CC6CC3CC64C5)ncnc21)C(C)C.Cl [Example 21, N-(1-(2-(Diisopropylamino)ethyl)-1H-pyrazolo[3,4-d]pyrimidin-4-yl)-1-noradamantylcarboxamide hydrochloride]	90.8%	55 nM	–
Cl.O=C(Nc1ncnc2c1cnn2CCN1CCCCCC1)C12C3CC4CC1CC42C3 [Example 22, N-(1-(2-(Azepan-1-yl)ethyl)-1H-pyrazolo[3,4-d]pyrimidin-4-yl) 1-noradamantylcarboxamide hydrochloride]	97.2%	15 nM	–
CC(C)N1CCN(CCn2ncc3c(NC(=O)C45CC6CC(CC(C6)C4)C5)ncnc32)CC1.O=C(O)/C=C\C(=O)O [Example 31, N-(1-(2-(4-isopropylpiperazin-1-yl)ethyl)-1H-pyrazolo[3,4-d]pyrimidin-4-yl) 1-adamantylcarboxamide maleate]	76.8%	573 nM	–
CC(C)N(CCn1ncc2c(NC(=O)C34CC5CC(CC(C5)C3)C4)ncnc21)C(C)C.O=C(O)/C=C\C(=O)O [Example 18, N-(1-(2-(Diisopropylamino)ethyl)-1H-pyrazolo[3,4-d]pyrimidin-4-yl)-1-adamantylcarboxamide maleate]	90.2%	56.7 nM	–
CC(C)N(CCn1ncc2c(NC(=O)C3CCCC3)ncnc21)C(C)C.O=C(O)/C=C\C(=O)O [Example 28, N-(1-(2-(Diisopropylamino)ethyl)-1H-pyrazolo[3,4-d]pyrimidin-4-yl)cyclopentanecarboxamide maleate]	54.0%	631 nM	–

Other lines, results leading:

% Displacement (10^−6 M)	Ki	Ki (maleate)	Structure (SMILES)
–	280 nM	–	CCCNC(=O)Nc1ncnc2c1cnn2CCCCN1CCC(C(C)(C)C)CC1 [Example 93, 1-(1-(4-(4-tert-butylpiperidin-1-yl)butyl)-1H-pyrazolo[3,4-d]pyrimidin-4-yl)-3-propylurea]
25.9%	805 nM	–	CC(C)N(CCn1ncc2c(NC(=O)NC(C)(C)C)ncnc21)C(C)C.Cl [Example 61, 1-tert-Butyl-3-(1-(2-(diisopropylamino)ethyl)-1H-pyrazolo[3,4-d]pyrimidin-4-yl)urea hydrochloride]
–	221 nM	–	CC(=O)N(C)c1ncnc2c1cnn2CCN1CCCCCC1 [Example 101, N-(1-(2-(azepan-1-yl)ethyl)-1H-pyrazolo[3,4-d]pyrimidin-4-yl)-N-methylacetamide]
–	329 nM	–	CN1CCN(CCCn2ncc3c(NC(=O)C(C)(C)C)ncnc32)CC1 [Example 86, N-(1-(3-(4-methylpiperazin-1-yl)propyl)-1H-pyrazolo[3,4-d]pyrimidin-4-yl)pivalamide]
–	212 nM	–	CCCNC(=O)Nc1ncnc2c1cnn2CCN1CCC(C(C)(C)C)CC1 [Example 74, 1-(1-(2-(4-tert-butylpiperidin-1-yl)ethyl)-1H-pyrazolo[3,4-d]pyrimidin-4-yl)-3-propylurea]
–	102 nM	–	CCCNC(=O)Nc1ncnc2c1cnn2CCCN1CCCCCC1 [Example 73, 1-(1-(3-(azepan-1-yl)propyl)-1H-pyrazolo[3,4-d]pyrimidin-4-yl)-3-propylurea]
–	740 nM	–	Cc1ccc(C)n1-c1ncnc2c1cnn2CCN1CCCCC1 [Example 105, 4-(2,5-dimethyl-1H-pyrrol-1-yl)-1-(2-(piperidin-1-yl)ethyl)-1H-pyrazolo[3,4-d]pyrimidine]
96.8%	14.9 nM	–	CNC(=S)Nc1ncnc2c1cnn2CCN1CCCCCC1.O=C(O)/C=C\C(=O)O [Example 76, 1-(1-(2-(azepan-1-yl)ethyl)-1H-pyrazolo[3,4-d]pyrimidin-4-yl)-3-methylthiourea maleate]
91.4%	108 nM	–	O=C(Nc1ccc(Cl)cc1Cl)Nc1ncnc2c1cnn2CCN1CCCCCC1.O=C(O)CC(O)(CC(=O)O)C(=O)O [Example 64, 1-(1-(2-(azepan-1-yl)ethyl)-1H-pyrazolo[3,4-d]pyrimidin-4-yl)-3-(2,4-dichlorophenyl)urea citrate]
96.8%	27.9 nM	–	CC(C)(C)CC(C)(C)NC(=O)Nc1ncnc2c1cnn2CCN1CCCCCC1.O=C(O)/C=C\C(=O)O [Example 65, 1-(1-(2-(azepan-1-yl)ethyl)-1H-pyrazolo[3,4-d]pyrimidin-4-yl)-3-(2,4,4-trimethylpentan-2-yl)urea maleate]
